Experiments:
[1] = system: gfp-luc2-labelled PDX cells (NPC), subcutaneous model; assay: Drug testing in subcutaneous tumour model of gfp-luc2-labelled PDX; format: in vivo, NSG mice; settings: 2 mg/kg i.p. weekly for 3 weeks, bioluminescence imaging
Experimental: (§1) All experiments were performed in accordance with national regulations and were approved by the AC UC of Ministry of Health, Malaysia. NSG mice, 6-8 weeks old were anaesthetized using Ketamine-Xylazine (100 mg/ml and 10 mg/ml).
(§2) To test the effect of drug on tumour growth inhibition, subcutaneous and/or metastatic model were used. For subcutaneous model, 2×10^5 cells of gfp-luc2 cells were resuspended in RPMI and mixed with matrigel at 1:1 ratio and injected into the right flank. For metastatic model, 2×10^5 cells of gfp-luc2 cells were resuspended in 100 μl of RPMI and injected into left ventricle. Weekly bioluminescence imaging (BLI) were carried out to monitor the progress of tumour growth using VIS Spectrum.
(§3) When tumour volume reached to 50-150 mm^3 or once the signal intensity reached 1×10^4 (average radiance, p/sec/cm^2/sr) mice were randomised into control or treatment group. Treatment commenced 35 days post inoculation. Mice were treated with vehicle (0.9% NaCl) or cisplatin (2 mg/kg) via intraperitoneal (i.p.) injection, weekly for 3 weeks. Tumour volume was measured thrice weekly using callipers and BLI was carried out weekly. Mice were observed daily for general wellbeing and tumour burden.

[2] = system: gfp-luc2-labelled PDX cells (NPC), metastatic model; assay: Drug testing in metastatic tumour model of gfp-luc2-labelled PDX (intra-cardiac injection); format: in vivo, NSG mice; settings: metastatic model (left ventricle injection); 2 mg/kg i.p. weekly for 3 weeks; bioluminescence imaging
Experimental: as §1, §2, §3

N.N.[Cl][Pt][Cl] [cisplatin]
tumour response as measured by the luminescence signals intensity [1]: tumour regression | tumour response as measured by the luminescence signals intensity [2]: tumour regression
